Measured values published in patent US20100267629A1, “Enterostatin as Therapeutic Agent for Hypoglycemia” (Board of Supervisors of Louisiana State University and …, priority 2006, published 2010).

Key:
[1] = test system: AMPK; assay: pAMPK Western blot in HepG2 cells, 15 min incubation; type: cell-based, human
Description: Human liver cells (HepG2 cell line, American Type Culture Collection, Manassas, Va.) were grown and maintained in Dulbecco's modified eagle's medium (Gibco, Carlsbad, Calif.) containing 10% fetal bovine serum, penicillin (100 I.U./ml), and streptomycin (100 μg/ml). The cells were then incubated for 15 min with 5 mM glucose and various concentrations of enterostatin (0.003, 0.01, 0.1, 1, and 3 μM) and/or of its antagonist β-casomorphin (BCM) (0.003, 0.01, 0.1, 1, and 3 μM). After incubation, the cells were lysed and the cytosolic proteins subjected to Western blot analysis for AMPK and pAMPK. The results for pAMPK activity are shown in FIG. 5A (enterostatin) and FIG. 5B (BCM). […] This effect was blocked by the presence of an antibody to the enterostatin receptor (anti F1-ATPase beta subunit).

[2] = test system: AMPK; assay: pAMPK Western blot in HepG2 cells, 60 min incubation; type: cell-based, human; conditions: HepG2, one hour incubation
Description: In a second experiment, human liver cells (HepG2 cell line, American Type Culture Collection, Manassas, Va.) were grown and maintained in Dulbecco's modified eagle's medium (Gibco, Carlsbad, Calif.) containing 10% fetal bovine serum, penicillin (100 I.U./ml), and streptomycin (100 μg/ml). The cells were then incubated for 60 min with 5 mM glucose and various concentrations of enterostatin (0.001, 0.01, 0.03, 0.1, 1.0 μM). After incubation, the cells were lysed and the cytosolic proteins subjected to Western blot analysis for pAMPK and PKARIIβ.

[3] = test system: SK-N-MC neuroepithelioma cells; conditions: cited from earlier work
[4] = indirect calorimetry; cited from earlier work
[5] = test system: C57B1/6 male mice; assay: Blood glucose response to insulin; type: in vivo, mouse
Description: (§1) Animals: C57B1/6 male mice were purchased from The Jackson Laboratory (Bar Harbor, Me.) at 6 weeks of age. The mice were initially housed in groups of three in acrylic cages in a room with a 12-hour light/dark cycle and with controlled temperature (22 to 23° C.) and with free access to water. The mice were fed a high fat diet (4.78 kcal/g, 56% energy as fat; Research Diets Inc, Brunswick, N.J.). The composition of the diet has been previously described (15). Body weights were measured three time per week. At 8 weeks of age, the mice were switched to single housing.
(§2) Peptide Injections: Enterostatin was dissolved in 0.1 ml saline (0.9% NaCl w/v), and given as a single dose of either 5 μg or 25 μg/mouse. Either enterostatin or saline (control) was injected intraperitoneally. In the experiments involving insulin, insulin (0.75 mU/g body weight) or saline (0.1 ml/10 g body weight; control) was injected intraperitoneally.
Enterostatin Effect on Blood Glucose Response to Insulin. To test the effect of enterostatin on the blood glucose response to exogenous insulin, mice were fasted for 4 hours, and insulin (0.75 mU/gm body weight) or saline (0.1 ml/10 gm body weight) was injected intraperitoneally at time zero. Enterostatin (5 or 25 ug/mouse in 0.1 ml saline vehicle) or saline vehicle was also injected intraperitoneally (ip) at time zero. Blood samples were taken from the tail vein immediately before the injections, and then at 15, 30, 45 and 60 minutes afterwards. The samples were assayed for glucose on a glucometer (Ascencia Elite XL, Bayer, Pittsburgh, Pa.).

[6] = test system: sheep; conditions: single-choice diet; cited from earlier work
[7] = test system: C57B1/6 male mice; assay: Glucose tolerance test; type: in vivo, mouse; conditions: 18 h fasted, vs control
Description: as §1, §2
Enterostatin Effect on Glucose Tolerance Tests: For glucose tolerance tests, mice were fasted overnight (18 hours). Enterostatin (5 or 25 ug/mouse in 0.1 ml saline vehicle) or saline vehicle was injected intraperitoneally (ip) 20 minutes before an intraperitoneal injection of glucose (1.0 mg/gm body weight). Blood samples were taken from the tail vein immediately before glucose administration, and then at 15, 30, 45 and 60 min after glucose injection. […]

[8] = test system: rabbits; conditions: single-choice diet; cited from earlier work
[9] = test system: rats; conditions: cited from earlier work

Enterostatin: aminoterminal pentapeptide of procolipase released when procolipase is converted into colipase (VPDPR; printed: Val-Pro-Asp-Pro-Arg)
Effect on pAMPK in presence of antibody anti F1-ATPase beta subunit ([1]; HepG2, 15 min, 5 mM glucose): blocked
AMPkinase activity shown by pAMPK ([1]; HepG2, 15 min, 5 mM glucose, 0.003-3 μM): inhibited AMPkinase
β-casomorphin stimulation of pAMPK levels ([1]; HepG2, enterostatin 0.01, 0.1 and 1.0 uM with β-casomorphin): reversed dose-dependently
Dose of peak effect on pAMPK [2]: 0.01 μM
pAMPK levels ([2]; 5 mM glucose): increase in pAMPK levels
Kd [3]: 0.04 µM
Fat oxidation [4]: enhance fat oxidation
Blood glucose level versus zero-time level after insulin ([5]; 5 μg/mouse ip, at 60 min): had not returned to zero-time levels
Time for which blood glucose is increased after injection ([5]; conclusion from insulin response test): ≥ 30 min
Delay of initial fall in blood glucose in response to insulin ([5]; higher dose (25 μg/mouse) ip): 30 min
Blood glucose level versus zero-time level after insulin ([5]; higher dose (25 μg/mouse) ip, 45 to 60 min): remained below the zero-time level
Food intake [6]: reduce food intake
Clearance of blood glucose ([7]; 5 μg/mouse ip 20 min before glucose 1.0 mg/gm): no differences
Clearance of blood glucose ([7]; 25 μg/mouse ip 20 min before glucose 1.0 mg/gm): no differences
Food intake [8]: reduce food intake
Fat deposition and body weight gain ([9]; chronic icv, HF diets): reduction in fat deposition and body weight gain
Daily intake of dietary fat ([9]; chronic icv, single-choice HF or two-choice HF/LF diet): attenuated the daily intake of dietary fat
Energy intake or change in body weight gain ([9]; chronic treatment, low-fat diet for seven days): no significant reduction
